pIC50: −log10 of the molar value. Several values for one entry are separate records, joined by “and”; a condition that tells them apart may be missing. Identical values can stand only once. Like-named read-outs stand apart in the source and are kept apart here.
Experiments:
[1] = system: T315I-Bcr-Abl-32D cells; assay: CCK-8 cell viability assay, T315I-Bcr-Abl-32D cells; type: cell-based, mouse; details: for viability (0 = 100): T315I-Bcr-Abl, single replicates
[2] = system: K562 cells; assay: CCK-8 cell viability assay, K562 cells; type: cell-based, human; details: for cell viability (Figure 7d): K562, relative to 0 = 100, per replicate
Procedure: After 3 days, cells were analyzed by viability assays.

[3] = system: untransformed 32D cells; assay: Western blot of tyrosine phosphorylation, untransformed 32D cells; type: cell-based, mouse; details: untransformed 32D cells, JMF4073 at indicated concentrations, Western blot
[4] = system: WT-Bcr-Abl-32D cells; assay: Western blot of tyrosine phosphorylation and Bcr-Abl downstream signaling, WT-Bcr-Abl-32D cells; type: cell-based, mouse; details: WT-Bcr-Abl-32D cells, JMF4073 at indicated concentrations, Western blot
Text: (§1) Supplementary Figure 1. Bcr-Abl-activated downstream signaling in WT- and
(§2) The comparison of Bcr-Abl downstream signaling (Akt, mTorC1, and Stat5) in WT- […]

[5] = system: T315I-Bcr-Abl-32D cells; assay: Western blot of tyrosine phosphorylation and Bcr-Abl downstream signaling, T315I-Bcr-Abl-32D cells; type: cell-based, mouse; details: T315I-Bcr-Abl-32D cells, JMF4073 at indicated concentrations, Western blot
Text: as §1, §2

[6] = molecular target: T1, hTMPK (Homo sapiens, UniProt P23919); assay: biochemical
T1 sequence (P23919 1-212): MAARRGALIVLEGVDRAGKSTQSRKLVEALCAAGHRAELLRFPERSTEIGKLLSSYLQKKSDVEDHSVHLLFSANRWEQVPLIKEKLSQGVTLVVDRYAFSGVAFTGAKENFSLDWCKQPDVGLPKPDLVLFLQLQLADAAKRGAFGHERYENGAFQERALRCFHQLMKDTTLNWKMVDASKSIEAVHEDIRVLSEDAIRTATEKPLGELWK
Procedure: Activity assay was measured using the spectrophotometric method by coupling ADP formation to NADH oxidation catalyzed by pyruvate kinase and lactate dehydrogenase as described previously[20]. Each reaction contained 0.4 μg TMPK or 0.3 μg CMPK was incubated at 25 °C followed by using Tecan Spark 10 microplate reader to detect the change in NADH measurement at 340 nm absorption according to the manufacturer’s instructions.

[7] = system: TCCS cells; assay: CCK-8 cell viability assay, TCCS cells; details: for cell viability (Figure 7d) / cell viability (Figure 7g): TCCS, per replicate; for cell viability (Figure 7d): relative to 0 = 100; for cell viability (Figure 7g): NT, NT 0 μM = 100
Procedure: (§3) Cells were seeded at the density of 1 × 10^3 cells/well in 96-well microplate. After 3 days, cell viability was determined using the CCK-8 cell viability. The viability was measured by using Tecan Spark 10 microplate reader at 450 nm according to the manufacturer’s instructions.

[8] = system: KOPM28 cells; assay: CCK-8 cell viability assay, KOPM28 cells; details: for cell viability (Figure 7g): NT, NT 0 μM = 100, per replicate
Procedure: as §3

[9] = system: WT-Bcr-Abl-32D cells in C3H/HeNCrNarl mice; assay: In vivo therapy of WT-Bcr-Abl-32D CML mice; details: WT-Bcr-Abl-32D mice
Text: Data are represented as means ± S.D., n = 3 biological replicates. e C3H/HeNCrNarl mice were intravenously injected with 5 × 10^5 cells of WT-Bcr-Abl-32D cell. […] Asterisks denote *p < 0.05, **p < 0.01, ***p < 0.001, or ****p < 0.0001 from unpaired two-tailed Student’s t-test or Log-rank (Mantel–Cox) test.
Female C3H/HeNCrNarl mice were used at 6–8 weeks of age (National Laboratory Animal Center, Taiwan).
Mouse CML induction and in vivo therapy
Female C3H/HeNCrNarl mice were used at 6-8 weeks of age (National
Laboratory Animal Center, Taiwan). WT-Bcr-Abl-32D-EGFP+ cells (5 × 105)
suspended in 200 μL of HBSS were injected into each mouse through the tail vein. After
were monitored for peripheral blood (PB) and counted by Taiwan Mouse Clinic-
National Phenotyping Center, National Research Program for Genomic Medicine
(NSC). For T315I-Bcr-Abl CML mice, T315I-Bcr-Abl-32D-EGFP+ cells (1×106)
suspended in 200 μL of HBSS were tail-vein-injected. After 7 days of transplantation,
(§4) For monitoring CML progress, mice blood was
(§5) collected in anticoagulation tubes by submandibular blood collection, followed by
(§6) lysing red blood cells with RBC lysis buffer (Invitrogen). After washing, the remaining
(§7) cells were suspended in 500 μL of HBSS and subjected to flow cytometry analysis
(FACScalibur, BD Bioscience) with CellQuest software. The number of EGFP+ cells

[10] = system: T315I-Bcr-Abl-32D cells in C3H/HeNCrNarl mice; details: for survival of leukemia mice: T315I-Bcr-Abl-32D mice, vs vehicle
Procedure: Asterisks denote *p < 0.05, **p < 0.01, ***p < 0.001, or ****p < 0.0001 from unpaired two-tailed Student’s t-test or Log-rank (Mantel–Cox) test.
T315I-Bcr-Abl-transformed and untransformed 32D cells were treated with UK-5099 (25 μM) for 16 h. […] Data are represented as means ± S.D., n > 3 biological replicates.
The animal studies were approved by the biosafety committee at National Taiwan University and conformed to the national guidelines and regulations (IACUC # 20201063). Female C3H/HeNCrNarl mice were used at 6–8 weeks of age (National Laboratory Animal Center, Taiwan).
Mouse CML induction and in vivo therapy
The animal studies were approved by the biosafety committee at National Taiwan
University and conformed to the national guidelines and regulations (IACUC #
20201063). Female C3H/HeNCrNarl mice were used at 6-8 weeks of age (National
Laboratory Animal Center, Taiwan).
suspended in 200 μL of HBSS were injected into each mouse through the tail vein.
suspended in 200 μL of HBSS were tail-vein-injected.
as §4, §5, §6, §7
(FACScalibur, BD Bioscience) with CellQuest software.

CC(C)(C)OC(=O)N1CCN(C(=O)Cn2sc3ccc(F)cc3c2=O)CC1 [JMF4073, Tert-butyl 4-(2-(5-fluoro-3-oxobenzo[d]isothiazol-2(3H)-yl)acetyl) piperazine-1-carboxylate]
viability (0 = 100) ([1]; JMF4073 2 mM (so in the source)): 12 and 38 and 34.0126
viability (0 = 100) ([1]; JMF4073 5 mM (so in the source)): 19 and 10 and 9.067
JMF4073 sensitivity with BSO co-treatment ([1]; T315I-Bcr-Abl-32D cells, BSO 12.5 μM): markedly increased
JMF4073 sensitivity with UK-5099 treatment ([1]; T315I-Bcr-Abl-32D cells, UK-5099 25 μM): sensitized
cell viability (Figure 7d) ([2]; JMF4073 0.625 (mM as printed)): 114.189 and 84.0418 and 97.6144
cell viability (Figure 7d) ([2]; JMF4073 1.25 (mM as printed)): 86.4343 and 75.2342 and 85.0231
cell viability (Figure 7d) ([2]; JMF4073 2.5 (mM as printed)): 42.6408 and 39.7616 and 38.8404
cell viability (Figure 7d) ([2]; JMF4073 5 (mM as printed)): 4.788 and 0.7438 and 0.1275
JMF4073 sensitivity ([2]; K562 cells, 3 days, compared among K562, TCCS, KOPM28): higher
levels of overall tyrosine phosphorylation [3]: unaffected
levels of overall tyrosine phosphorylation [4]: unaffected
levels of overall tyrosine phosphorylation [5]: unaffected
pIC50 [6]: 6.80 and ~6.77
sensitivity to combinatory treatment of JMF4073 and UK-5099 ([7]; TCCS cells): insensitive
JMF4073 sensitivity ([7]; TCCS cells, 3 days, compared among K562, TCCS, KOPM28): less
JMF4073 sensitivity after erastin pretreatment ([7]; TCCS cells, erastin 0.5 μM, 16 h): markedly increased
cell viability (Figure 7d) ([7]; JMF4073 0.625): 120.422 and 103.29 and 164.136
cell viability (Figure 7d) ([7]; JMF4073 1.25): 102.037 and 133.359
cell viability (Figure 7d) ([7]; JMF4073 2.5): 39.3238 and 117.065
cell viability (Figure 7d) ([7]; JMF4073 5): 61.7646 and -1.852 and 14.6452
cell viability (Figure 7g) ([7]; JMF 4073 0.625 μM): 120.422 and 103.29 and 164.136
cell viability (Figure 7g) ([7]; JMF 4073 1.25 μM): 102.037 and 133.359
cell viability (Figure 7g) ([7]; JMF 4073 2.5 μM): 39.3238 and 117.065
cell viability (Figure 7g) ([7]; JMF 4073 5 μM): 61.7646 and -1.852 and 14.6452
cell viability (Figure 7g) ([8]; KOPM28, JMF 4073 1.25 μM): 106.704 and 151.464
cell viability (Figure 7g) ([8]; KOPM28, JMF 4073 2.5 μM): 112.966 and 158.237
cell viability (Figure 7g) ([8]; KOPM28, JMF 4073 5 μM): 142.547 and 122.577 and 85.9406
cell viability (Figure 7g) ([8]; KOPM28, JMF 4073 10 μM): 0 and -1.445 and 2.083
sensitivity to combinatory treatment of JMF4073 and UK-5099 ([8]; KOPM28 cells): insensitive
JMF4073 sensitivity ([8]; KOPM28 cells, 3 days, compared among K562, TCCS, KOPM28): insensitive
JMF4073 sensitivity after erastin pretreatment ([8]; KOPM28 cells, erastin 0.5 μM, 16 h): markedly increased
WBC (White blood cell/Leukocyte count) ([9]; IP JMF4073, Day 26, submandibular blood, single mice): brought down
survival of leukemia mice ([9]; JMF4073 5 mg/kg i.p. daily for 14 days, vs vehicle): prolonged the survival
Spleen weight ([10]; Figure 6h, individual mice N1-N3): 0.26 g and 0.29 g and 0.58 g
spleen size ([10]; JMF4073 5 mg/kg + UK-5099 10 mg/kg i.p.): marked decreases
population of T315I-Bcr-Abl-32D/EGFP+ cells in blood ([10]; JMF4073 5 mg/kg + UK-5099 10 mg/kg i.p., flow cytometry, day 30 after transplantation): marked decreases
survival of leukemia mice ([10]; JMF4073 5 mg/kg + UK-5099 10 mg/kg i.p. daily for 14 days): prolonged the survival
survival of leukemia mice ([10]; JMF4073 5 mg/kg i.p. daily for 14 days): not significantly prolonged

Reference: article PMC11237035, “Glutathione determines chronic myeloid leukemia vulnerability to an inhibitor of CMPK and TMPK” (Communications Biology, 2024)
